Test results taken from patent US10123960B2, “Methods for treating of skin conditions with retinoid double conjugate compounds” (US COSMECEUTECHS LLC, priority 2013, dated 2018).
“Also recorded” adds a separate entry of the source.

Test system: upper outer arm or back of each subject
Test: Maximization assay (human patch test: induction, rest and challenge phases)
Type: in vivo
Parameters: key to Maximization Testing Results: 72-Hour Grading / Maximization Testing Results: 48-Hour Grading: 0=not sensitized; 1=mild sensitization (viz. erythema and a little edema); 2=moderate sensitization (erythema with infiltration, raised, spreading beyond the borders of the patch, with or without vesiculation); 3=strong sensitization (large vesicula-bullous reaction)
Conditions: for Maximization Testing Results: 48-Hour Grading: 48 hours after challenge patch; for Maximization Testing Results: 72-Hour Grading: 72 hours after challenge patch
Method: A group of 26 subjects were tested to compare the activity of lactic acid retinoate (single conjugate) with ethyl lactate retinoate (double conjugate). As a general protocol, a patch (Webril cotton with 0.05 ml of a 5.0% aqueous solution) was applied to the upper outer arm or back of each subject. The entire test was composed of (1) an induction phase (2) a rest phase and (3) a challenge phase.
The scoring scale was as follows: • 0=not sensitized; • 1=mild sensitization (viz. erythema and a little edema); • 2=moderate sensitization (erythema with infiltration, raised, spreading beyond the borders of the patch, with or without vesiculation); and • 3=strong sensitization (large vesicula-bullous reaction).

[1] = Subject Number 26 (one volunteer)

Compound	share of the sample population with a delayed skin irritation reaction presumptive of contact allergy (25 panelists completed) [%]	Maximization Testing Results: 48-Hour Grading (Subject Number 01-24)	Maximization Testing Results: 72-Hour Grading (Subject Number 01-24)	Maximization Testing Results: 48-Hour Grading [1]	Maximization Testing Results: 72-Hour Grading [1]	adverse or unexpected reactions in the panelists (induction phase)	skin irritation at the induction patch (leading to method deviation) (induction phase)	share of the sample population with any skin irritation or allergic reactions (26 subjects) [%]	instances of contact allergy (48 or 72 hours after application of the challenge patches)	Maximization Testing Results: 48-Hour Grading (Subject Number 01-26)	Maximization Testing Results: 72-Hour Grading (Subject Number 01-26)
CC1=C(/C=C/C(C)=C/C=C/C(C)=C/C(=O)OC(C)C(=O)O)C(C)(C)CCC1 (centres unmarked) [lactyl retinoate, 2-(((2E,4E,6E,8E)-3,7-dimethyl-9-(2,6,6-trimethylcyclohex-1-en-1-yl)nona-2,4,6,8-tetraenoyl)oxy)propanoic acid]	4	Subject Number: 01-24, 48-Hour Grading: 0	Subject Number: 01-24, 72-Hour Grading: 0	Subject Number: 26, 48-Hour Grading: 1	persisted at 72 hours (score 2); also recorded: Subject Number: 26, 72-Hour Grading: 2	No adverse or unexpected reactions were	many subjects had skin irritation sufficient enough to change protocol application				
CCOC(=O)[C@@H](C)OC(=O)/C=C(C)/C=C/C=C(C)/C=C/C1=C(C)CCCC1(C)C [ethyl lactate retinoate]								0	No instances of contact allergy were recorded	Subject Number: 01-26, 48-Hour Grading: 0	Subject Number: 01-26, 72-Hour Grading: 0
